Laboratory results taken from patent US11911386B2, “Methods of treating B-cell proliferative disorder” (BeiGene Switzerland GmbH, priority 2022, dated 2024).
Read-outs that look alike come from different tables or passages of the source.

What was measured:
[1] = target: T1, P-glycoprotein (Homo sapiens, UniProt P08183); conditions: repeated dosing of zanubrutinib; cited from earlier work
T1 construct: endogenous in cells; host or cells: human subjects in vivo (clinical study)
T1 sequence (P08183 whole entry): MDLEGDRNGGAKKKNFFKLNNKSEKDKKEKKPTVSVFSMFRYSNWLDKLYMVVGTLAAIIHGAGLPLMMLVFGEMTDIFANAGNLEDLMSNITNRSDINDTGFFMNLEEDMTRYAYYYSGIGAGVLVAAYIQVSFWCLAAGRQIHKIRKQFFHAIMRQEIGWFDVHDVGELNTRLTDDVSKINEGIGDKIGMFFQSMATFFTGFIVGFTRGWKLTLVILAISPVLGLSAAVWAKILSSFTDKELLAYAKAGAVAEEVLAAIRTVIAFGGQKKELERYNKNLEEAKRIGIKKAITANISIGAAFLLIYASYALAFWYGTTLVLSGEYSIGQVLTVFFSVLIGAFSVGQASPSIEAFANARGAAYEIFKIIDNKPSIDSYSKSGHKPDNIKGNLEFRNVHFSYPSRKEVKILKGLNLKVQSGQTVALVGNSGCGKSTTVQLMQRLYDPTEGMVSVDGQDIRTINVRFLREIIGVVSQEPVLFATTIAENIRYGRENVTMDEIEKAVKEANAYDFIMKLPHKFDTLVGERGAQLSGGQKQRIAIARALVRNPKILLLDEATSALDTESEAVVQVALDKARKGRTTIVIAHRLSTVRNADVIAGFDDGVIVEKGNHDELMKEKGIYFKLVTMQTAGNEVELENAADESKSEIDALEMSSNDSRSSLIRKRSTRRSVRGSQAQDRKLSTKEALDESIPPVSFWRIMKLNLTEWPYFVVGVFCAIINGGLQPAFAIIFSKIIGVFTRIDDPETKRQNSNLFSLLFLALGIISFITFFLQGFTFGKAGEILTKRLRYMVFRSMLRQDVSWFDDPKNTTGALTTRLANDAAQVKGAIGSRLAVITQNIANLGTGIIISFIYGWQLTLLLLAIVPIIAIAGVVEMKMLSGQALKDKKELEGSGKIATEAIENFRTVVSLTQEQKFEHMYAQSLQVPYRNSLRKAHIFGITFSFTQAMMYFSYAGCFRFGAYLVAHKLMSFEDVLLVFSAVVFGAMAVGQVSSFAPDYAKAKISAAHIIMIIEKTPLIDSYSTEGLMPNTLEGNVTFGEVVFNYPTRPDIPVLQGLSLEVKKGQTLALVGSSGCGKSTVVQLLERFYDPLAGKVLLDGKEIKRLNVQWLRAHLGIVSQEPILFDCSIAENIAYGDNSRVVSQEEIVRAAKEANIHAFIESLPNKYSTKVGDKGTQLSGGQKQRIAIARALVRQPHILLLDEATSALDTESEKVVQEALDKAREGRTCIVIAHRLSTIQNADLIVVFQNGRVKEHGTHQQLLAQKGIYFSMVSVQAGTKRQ

In the case of `C=CC(=O)N1CCC([C@@H]2CCNc3c(C(N)=O)c(-c4ccc(Oc5ccccc5)cc4)nn32)CC1` [zanubrutinib, (S)-7-(1-acryloylpiperidin-4-yl)-2-(4-phenoxyphenyl)-4,5,6,7-tetrahydropyrazolo[1,5-a]pyrimidine-3-carboxamide], the “Mean increase of digoxin AUC0-t” value [1] is given as 11%, the “Mean increase of digoxin Cmax” value [1] is given as 34% and the “Grade ≥3 AE” value (160 mg bid group) is given as 28.6%. For the same compound, the Neutropenia (160 mg bid group) was 19.0%, the “Patients with ≥1 AE” value (160 mg bid group) was 95.2% and the SAE (160 mg bid group) was 9.5%. For the same compound, the “Treatment discontinuation due to AEs” value (160 mg bid group) was 4.8%, the “Grade ≥3 AE” value (320 mg qd group) was 32.0% and the Neutropenia (320 mg qd group) was 8.0%. For the same compound, the “Patients with ≥1 AE” value (320 mg qd group) was 96%, the SAE (320 mg qd group) was 16.0% and the “Treatment discontinuation due to AEs” value (320 mg qd group) was 12.0%. For the same compound, the Arthralgia (67 patients) was 13.4%, the Contusion (67 patients) was 22.4% and the “Death (COVID-19 pneumonia)” value (67 patients) was 1.5%. The Diarrhoea (67 patients) was 13.4%, the Epistaxis (67 patients) was 7.5% and the Fatigue (67 patients) was 20.9%. The “Grade ≥3 AEs” value (67 patients) was 29.9%, the Hypertension (67 patients) was 11.9% and the Myalgia (67 patients) was 14.9%. For the same compound, the “Neutropenia or neutrophil count decreased, grade ≥3” value (67 patients) was 11.9%, the “Patients with ≥1 AE” value (67 patients) was 95.5% and the Petechiae (67 patients) was 7.5%. The “Serious AEs” value (67 patients) was 11.9%, the “Syncope, grade ≥3” value (67 patients) was 3.0% and the Atrial fibrillation (67 patients, all grade 2) was 4.5%. For the same compound, the “Patients who discontinued zanubrutinib” value (Cohort 1) was 15.8%, the “Patients who discontinued zanubrutinib due to AEs” value (Cohort 1) was 7.0% and the “Patients who discontinued zanubrutinib” value (Cohort 2) was 20.0%. For the same compound, the Arthralgia (Grade 1) was 4 (6.0) n (%), the Back pain (Grade 1) was 2 (3.0) n (%) and the Bronchitis (Grade 1) was 0 (0.0) n (%). For the same compound, the Cellulitis (Grade 1) was 0 (0.0) n (%), the Constipation (Grade 1) was 3 (4.5) n (%) and the Contusion (Grade 1) was 12 (17.9) n (%). The Cough (Grade 1) was 4 (6.0) n (%), the Diarrhoea (Grade 1) was 6 (9.0) n (%) and the Dizziness (Grade 1) was 3 (4.5) n (%). The Epistaxis (Grade 1) was 4 (6.0) n (%), the Fatigue (Grade 1) was 8 (11.9) n (%) and the Headache (Grade 1) was 4 (6.0) n (%). For the same compound, the Hypertension (Grade 1) was 0 (0.0) n (%), the Insomnia (Grade 1) was 3 (4.5) n (%) and the Muscle spasms (Grade 1) was 4 (6.0) n (%). For the same compound, the Myalgia (Grade 1) was 8 (11.9) n (%), the Nausea (Grade 1) was 6 (9.0) n (%) and the Neutropenia (Grade 1) was 0 (0.0) n (%). For the same compound, the Neutrophil count decrease (Grade 1) was 0 (0.0) n (%), the Pain in extremity (Grade 1) was 3 (4.5) n (%) and the Petechiae (Grade 1) was 5 (7.5) n (%). The Pruritus (Grade 1) was 3 (4.5) n (%), the Rash (Grade 1) was 5 (7.5) n (%) and the Seborrheic keratosis (Grade 1) was 3 (4.5) n (%). The Skin laceration (Grade 1) was 2 (3.0) n (%), the “Upper respiratory tract infection” value (Grade 1) was 3 (4.5) n (%) and the Urinary tract infection (Grade 1) was 1 (1.5) n (%). For the same compound, the Arthralgia (Grade 2) was 5 (7.5) n (%), the Back pain (Grade 2) was 2 (3.0) n (%) and the Bronchitis (Grade 2) was 3 (4.5) n (%). The Cellulitis (Grade 2) was 3 (4.5) n (%), the Constipation (Grade 2) was 1 (1.5) n (%) and the Contusion (Grade 2) was 3 (4.5) n (%). For the same compound, the Cough (Grade 2) was 1 (1.5) n (%), the Diarrhoea (Grade 2) was 2 (3.0) n (%) and the Dizziness (Grade 2) was 4 (6.0) n (%). For the same compound, the Epistaxis (Grade 2) was 1 (1.5) n (%), the Fatigue (Grade 2) was 6 (9.0) n (%) and the Headache (Grade 2) was 0 (0.0) n (%). The Hypertension (Grade 2) was 7 (10.4) n (%), the Insomnia (Grade 2) was 2 (3.0) n (%) and the Muscle spasms (Grade 2) was 1 (1.5) n (%). For the same compound, the Myalgia (Grade 2) was 2 (3.0) n (%), the Nausea (Grade 2) was 1 (1.5) n (%) and the Neutropenia (Grade 2) was 0 (0.0) n (%). For the same compound, the Neutrophil count decrease (Grade 2) was 2 (3.0) n (%), the Pain in extremity (Grade 2) was 3 (4.5) n (%) and the Petechiae (Grade 2) was 0 (0.0) n (%). The Pruritus (Grade 2) was 1 (1.5) n (%), the Rash (Grade 2) was 0 (0.0) n (%) and the Seborrheic keratosis (Grade 2) was 1 (1.5) n (%). For the same compound, the Skin laceration (Grade 2) was 2 (3.0) n (%), the “Upper respiratory tract infection” value (Grade 2) was 1 (1.5) n (%) and the Urinary tract infection (Grade 2) was 4 (6.0) n (%). For the same compound, the Arthralgia (Grade 3) was 0 (0.0) n (%), the Back pain (Grade 3) was 0 (0.0) n (%) and the Bronchitis (Grade 3) was 1 (1.5) n (%). The Cellulitis (Grade 3) was 1 (1.5) n (%), the Constipation (Grade 3) was 0 (0.0) n (%) and the Contusion (Grade 3) was 0 (0.0) n (%). The Cough (Grade 3) was 0 (0.0) n (%), the Diarrhoea (Grade 3) was 1 (1.5) n (%) and the Dizziness (Grade 3) was 0 (0.0) n (%). The Epistaxis (Grade 3) was 0 (0.0) n (%), the Fatigue (Grade 3) was 0 (0.0) n (%) and the Headache (Grade 3) was 0 (0.0) n (%). The Hypertension (Grade 3) was 1 (1.5) n (%), the Insomnia (Grade 3) was 0 (0.0) n (%) and the Muscle spasms (Grade 3) was 0 (0.0) n (%). The Myalgia (Grade 3) was 0 (0.0) n (%), the Nausea (Grade 3) was 0 (0.0) n (%) and the Neutropenia (Grade 3) was 5 (7.5) n (%). For the same compound, the Neutrophil count decrease (Grade 3) was 2 (3.0) n (%), the Pain in extremity (Grade 3) was 0 (0.0) n (%) and the Petechiae (Grade 3) was 0 (0.0) n (%). For the same compound, the Pruritus (Grade 3) was 0 (0.0) n (%), the Rash (Grade 3) was 0 (0.0) n (%) and the Seborrheic keratosis (Grade 3) was 0 (0.0) n (%). For the same compound, the Skin laceration (Grade 3) was 0 (0.0) n (%), the “Upper respiratory tract infection” value (Grade 3) was 0 (0.0) n (%) and the Urinary tract infection (Grade 3) was 0 (0.0) n (%). For the same compound, the Arthralgia (Grade 4) was 0 (0.0) n (%), the Back pain (Grade 4) was 0 (0.0) n (%) and the Bronchitis (Grade 4) was 0 (0.0) n (%). The Cellulitis (Grade 4) was 0 (0.0) n (%), the Constipation (Grade 4) was 0 (0.0) n (%) and the Contusion (Grade 4) was 0 (0.0) n (%). The Cough (Grade 4) was 0 (0.0) n (%), the Diarrhoea (Grade 4) was 0 (0.0) n (%) and the Dizziness (Grade 4) was 0 (0.0) n (%). For the same compound, the Epistaxis (Grade 4) was 0 (0.0) n (%), the Fatigue (Grade 4) was 0 (0.0) n (%) and the Headache (Grade 4) was 0 (0.0) n (%). For the same compound, the Hypertension (Grade 4) was 0 (0.0) n (%), the Insomnia (Grade 4) was 0 (0.0) n (%) and the Muscle spasms (Grade 4) was 0 (0.0) n (%). For the same compound, the Myalgia (Grade 4) was 0 (0.0) n (%), the Nausea (Grade 4) was 0 (0.0) n (%) and the Neutropenia (Grade 4) was 0 (0.0) n (%). For the same compound, the Neutrophil count decrease (Grade 4) was 1 (1.5) n (%), the Pain in extremity (Grade 4) was 0 (0.0) n (%) and the Petechiae (Grade 4) was 0 (0.0) n (%). The Pruritus (Grade 4) was 0 (0.0) n (%), the Rash (Grade 4) was 0 (0.0) n (%) and the Seborrheic keratosis (Grade 4) was 0 (0.0) n (%). The Skin laceration (Grade 4) was 0 (0.0) n (%), the “Upper respiratory tract infection” value (Grade 4) was 0 (0.0) n (%) and the Urinary tract infection (Grade 4) was 0 (0.0) n (%). For the same compound, the Serious atrial fibrillation (Safety Analysis Set, 72 patients) was 2.8%, the Arthralgia (Total) was 9 (13.4) n (%) and the Back pain (Total) was 4 (6.0) n (%). The Bronchitis (Total) was 4 (6.0) n (%), the Cellulitis (Total) was 4 (6.0) n (%) and the Constipation (Total) was 4 (6.0) n (%). For the same compound, the Contusion (Total) was 15 (22.4) n (%), the Cough (Total) was 5 (7.5) n (%) and the Diarrhoea (Total) was 9 (13.4) n (%). The Dizziness (Total) was 7 (10.4) n (%), the Epistaxis (Total) was 5 (7.5) n (%) and the Fatigue (Total) was 14 (20.9) n (%). The Headache (Total) was 4 (6.0) n (%), the Hypertension (Total) was 8 (11.9) n (%) and the Insomnia (Total) was 5 (7.5) n (%). For the same compound, the Muscle spasms (Total) was 5 (7.5) n (%), the Myalgia (Total) was 10 (14.9) n (%) and the Nausea (Total) was 7 (10.4) n (%). The Neutropenia (Total) was 5 (7.5) n (%), the Neutrophil count decrease (Total) was 5 (7.5) n (%) and the Pain in extremity (Total) was 6 (9.0) n (%). The Petechiae (Total) was 5 (7.5) n (%), the Pruritus (Total) was 4 (6.0) n (%) and the Rash (Total) was 5 (7.5) n (%). The Seborrheic keratosis (Total) was 4 (6.0) n (%), the Skin laceration (Total) was 4 (6.0) n (%) and the “Upper respiratory tract infection” value (Total) was 4 (6.0) n (%). For the same compound, the Urinary tract infection (Total) was 5 (7.5) n (%), the Bleeding events (in vivo) was 25 patients and the “Median time to onset of first hypertensive event” value (in vivo) was 105 days. The “Patients requiring dose reductions” value (in vivo) was 9.0% and the “Rate of zanubrutinib discontinuation due to AEs” value (in vivo) was less than 10%.
